Patent US20230082968A1, “EXOGENOUS NITRIC OXIDE FOR IMPROVED SUSCEPTIBILITY AND LOWERED ANTIBIOTIC RESISTANCE IN RESISTANT RESPIRATORY BACTERIA” (The University of North Carolina at Chapel Hill, priority 2020, published 2023)
In brackets after ≈: the same amount, converted by molar mass. Entries after “also recorded” stand apart in the source; their conditions may differ.

Key:
[1] = tested on: P. aeruginosa strain K (PAK); assay: Checkerboard assay of antibiotic combinations with COS/NO; format: cell-based, Pseudomonas aeruginosa; details: antibiotic in combination with COS/NO, 24 h
Procedure: Frozen stocks of bacteria were reconstituted in TSB (3 mL) and cultured overnight. The overnight cultures of bacteria (3 mL) were inoculated into fresh TSB (30 mL) and grown to 10^8 CFU/mL. […] Inhibition was assessed with the resazurin assay and the minimum inhibitory concentration (MIC) was defined as the lowest concentration of antibacterial agent required to prevent the reduction of resazurin (i.e., color change from blue to pink).
Mol. Pharm. 7, 2289-2296 (2010)]. Briefly, bacteria at a final concentration of 10^6 CFU/mL were incubated with an array of antimicrobial combinations in TSB for 24 h at 37° C. The highest concentration for each antimicrobial tested was 2 × MIC. […] The fractional […] concentration index (ΣFIC) was calculated using Equation 1, reported by Elion et al. [Elion, G. B., Singer, S. & Hitchings, G. H. Antagonists of Nucleic Acid Derivatives: VIII. Synergism in combinations of biochemically related antimetabolites. […] Checkerboard assays were conducted in at least duplicate for each bacterial strain and for each drug combination.
Characterization of the combinations was performed using the following criteria based on ΣFIC values: < 0.25 is highly synergistic; ≤ 0.5 is synergistic; ≤ 1 is additive; ≤ 4 is indifferent; > 4 is antagonistic.

PAK [2] = assay: Nitric oxide pretreatment with planktonic bacteria; format: cell-based, Pseudomonas aeruginosa; details: NO-pretreatment 25% MIC 4 h
Procedure: After exposure, wells were serially diluted in sterile MilliQ water and spiral plated on TSA. Viability was assessed by colony counting.

P. aeruginosa biofilms = assay: Biofilm pretreatment with nitric oxide, all tested biofilms; format: cell-based; details: P. aeruginosa biofilms, COS/NO at 25% MBEC
Procedure: Bacteria were cultured to a concentration of 10^8 CFU/mL in TSB and diluted to 10^6 CFU/mL in 200 µL TSB in a 96 well plate. Plates were incubated with shaking for 3 days until a non-surface attached viscous aggregate formed that was easily separated from growth medium. Biofilms (100 µL) were removed, gently injected into PBS (200 µL) to remove loosely adhered planktonic cells, and added to a sterile 96 well plate. To the wells, PBS or test agent dissolved in PBS (100 µL) was added and incubated with shaking for 24 h. The biofilm (100 µL) was removed from the well plate, added to 900 µL sterile MilliQ water, and disrupted with pipetting and vortexing. Disrupted biofilms were serially diluted and spiral plated on TSA. Viability was assessed with colony counting. The minimum biofilm eradication concentration (MBEC) was defined as the lowest concentration of test agent required to reduce viability by 5-log (i.e., 10^8 to 10^3 CFU/mL).
The biofilm was then removed from its 96 well plate, added to a new 96 well plate containing tobramycin dissolved in PBS (100 µL), and incubated for 20 h. The biofilm was disrupted in 900 µL sterile MilliQ water with pipetting and vortexing, serially diluted, and spiral plated on TSA. Viability was assessed with colony counting.

PAK [3] = assay: Serial passaging resistance assay; format: cell-based, Pseudomonas aeruginosa
Procedure: (§1) Bacteria at a final concentration of 10^6 CFU/mL in TSB were incubated with serial dilutions of COS/NO and/or tobramycin for 24 h. Growth was assessed by measuring absorbance at 600 nm. The wells that had the highest concentration of test agent and an OD600 corresponding to more than 10^8 CFU/mL were diluted to 10^6 cfu/mL in TSB and incubated with fresh solutions of COS/NO or tobramycin for 24 h. A single passage was defined as one exposure, incubation, and subsequent dilution. Bacteria were passaged for up to 70 days.

ATCC MRSA = assay: Serial passaging resistance assay; format: cell-based, Methicillin-resistant S. aureus
Procedure: as §1

[4] = tested on: PAK, ATCC MRSA, ATCC BCC, and AR 542; assay: NPN uptake assay (outer membrane permeability); format: cell-based; details: exposure to COS/NO, FIG. 1
Procedure: The outer membrane permeability of PAK, ATCC MRSA, ATCC BCC, and AR 542 was assessed with an NPN assay modified from Helander and coworkers [Helander, I. M. & Mattila-Sandholm, T. Fluorometric assessment of Gram-negative bacterial permeabilization. J. Appl. Microbiol. 88, 213-219 (2000)]. Briefly, a stock 4560 µM NPN in acetone solution was prepared fresh each day and diluted to 456 µM in PBS pH 7.4. Bacteria were cultured to a concentration of 10^8 CFU/mL in TSB, collected via centrifugation (5,000 × g for 5 min), and resuspended in PBS. Bacteria were added to COS/NO or DMSO in 1-dram vials and incubated at 37° C. with shaking. After 10 min of incubation, a portion of the exposure solution (196 µL) was removed and added to a black well plate, and 4 µL NPN (456 µM in PBS) was added. Fluorescence was immediately measured at excitation and emission wavelengths of 350 nm and 460 nm, respectively. The background NPN fluorescence in buffer was subtracted.

C[C@H]1[C@H](NC(=O)/C(=N\OC(C)(C)C(=O)O)c2csc(N)n2)C(=O)N1S(=O)(=O)O [Aztreonam]
Classification (ΣFIC) [1]: Additive
ΣFIC (median fractional inhibitory concentration index) [1]: 0.75
Classification (PAK [2]; antibiotic 2 µg/mL): Synergistic
Log Difference in bacteria viability with vs without NO-pretreatment (PAK [2]; antibiotic 2 µg/mL): 5.11 log

CC(C)(O/N=C(\C(=O)N[C@@H]1C(=O)N2C(C(=O)[O-])=C(C[n+]3ccccc3)CS[C@H]12)c1csc(N)n1)C(=O)O [Ceftazidime]
Classification (ΣFIC) [1]: Additive
ΣFIC (median fractional inhibitory concentration index) [1]: 1

C[C@@H](O)[C@H]1C(=O)N2C(C(=O)O)=C(S[C@@H]3CN[C@H](C(=O)N(C)C)C3)[C@H](C)[C@H]12 [Meropenem]
Classification (ΣFIC) [1]: Synergistic
ΣFIC (median fractional inhibitory concentration index) [1]: 0.5
Classification (PAK [2]; antibiotic 2 µg/mL): Synergistic
Log Difference in bacteria viability with vs without NO-pretreatment (PAK [2]; antibiotic 2 µg/mL): 3.22 log

[N]=O [NO, nitric oxide]
biofilm viability after NO-pretreatment alone (P. aeruginosa biofilms): does not significantly affect; also recorded: does not significantly reduce
MICn (PAK [3]; PAK, after n = 70 passages): 96 µg/mL
MIC (PAK [3]; Pseudomonas aeruginosa, read-out: MIC0): 96 mg/L (≈ 3.2 mM)
MICn (ATCC MRSA; ATCC MRSA, after n = 30 passages): 384 µg/mL
MIC (ATCC MRSA; Staphylococcus aureus, MRSA, read-out: MIC0): 384 mg/L (≈ 12.8 mM)
uptake of the hydrophobic fluorophore NPN and crystal violet dye (cell permeability) [4]: increased uptake

Colistin
Classification (ΣFIC) [1]: Synergistic
ΣFIC (median fractional inhibitory concentration index) [1]: 0.5
Log Difference in bacteria viability with vs without NO-pretreatment (PAK [2]; antibiotic […]): 5.13 log
